The values that follow come from patent US10160977B2, “Super-enhancers and methods of use thereof” (Whitehead Institute for Biomedical Research, priority 2012, dated 2018).

For one assay, the system named is HL60 cells. To be noted: read-out: IC50, growth of HL60 cells; cited from earlier work.
In a further assay the test system is pause release. Kind of assay: Inhibition of pause release. In kind it is cell-based. The source says: It has undergone clinical trials in a number of different cancer types including various solid tumors and leukemias. […] Without wishing to be bound by theory, this may help counteract the effects of Myc overexpression, and this may be the basis for the therapeutic effect of flavopiridol on some tumors.

In assay [1] the test system is various tumor cells lines. To be noted: cited from earlier work.
Another assay relates to xenograft models. Particulars: in vivo; cited from earlier work.
The target in assay [2] is T1, c-Myc (Homo sapiens, UniProt P01106). To be noted: cited from earlier work.
T1 sequence (P01106 whole entry): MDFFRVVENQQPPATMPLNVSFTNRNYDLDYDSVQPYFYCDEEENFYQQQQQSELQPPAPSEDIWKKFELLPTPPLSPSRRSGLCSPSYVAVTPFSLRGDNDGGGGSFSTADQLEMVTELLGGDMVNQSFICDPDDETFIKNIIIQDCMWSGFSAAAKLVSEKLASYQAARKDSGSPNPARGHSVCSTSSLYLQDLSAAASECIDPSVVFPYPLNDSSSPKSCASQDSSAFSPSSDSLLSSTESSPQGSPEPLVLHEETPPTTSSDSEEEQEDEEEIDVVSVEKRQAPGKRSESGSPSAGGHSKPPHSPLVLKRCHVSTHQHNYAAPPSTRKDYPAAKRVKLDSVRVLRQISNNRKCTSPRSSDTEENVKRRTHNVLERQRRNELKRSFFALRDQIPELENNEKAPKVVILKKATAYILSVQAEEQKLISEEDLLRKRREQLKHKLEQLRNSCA
The test system of another assay is MM.1S cells. Kind of assay: JQ1 sensitivity of MM.1S cells by measurement of ATP levels (CellTiterGlo). In kind it is cell-based, human. The source says: (§1) Schematic depicting the experimental procedure.
Background: In ATP-based viability assays light output follows the ATP content of the culture.

Assay [3] concerns c-MYC. Description: Western blot of c-MYC protein levels after JQ1 or DMSO treatment. Particulars: MM.1S cells, 6 hours of JQ1 treatment. The assay is classed as cell-based, human.
Excerpt: as §1
On the technique in general: A western blot detects proteins with antibodies after separation by electrophoresis.

The next assay relates to P-TEFb. Kind of assay: ChIP-Seq of P-TEFb occupancy in MM.1S cells after JQ1 treatment. In kind it is cell-based, human. The source says: FIGS. 9(A)-9(C) illustrate that loss of P-TEFb accompanies BRD4 inhibition. (FIG. 9A) P-TEFb generally occupies enhancers bound by Mediator and BRD4 in MM1.S cells. […] (FIG. 9C) P-TEFb is disproportionally lost at super-enhancers.
BRD4 recruits the active form of the positive transcription elongation factor P-TEFb, which stimulates pause release and transcription elongation (Bisgrove et al., 2007; Hargreaves et al., 2009; Jang et al., 2005; Jiang et al., 1998; Wu and Chiang, 2007; Wu et al., 2003; Yang et al., 2005). […] Furthermore, P-TEFb was disproportionately lost at super-enhancers when compared to normal enhancers (FIG. 9C). We conclude that BET bromodomain inhibition of BRD4 leads to loss of P-TEFb at enhancers and transcription start sites, and that the inhibition has more profound effects at super-enhancers than at average enhancers.

A further assay deals with RNA Polymerase II. Kind of assay: ChIP-seq of RNA Polymerase II after JQ1 treatment (transcription elongation). In kind it is cell-based, human. To be noted: MM.1S cells. From the text: (FIG. 10B) Genes associated with super-enhancers show a dramatic defect in elongation.
In assay [4] the target is T1, c-Myc. To be noted: cited from earlier work. This is another data set of the same source.
Another assay has as its target c-Myc/Max (Homo sapiens, UniProt P01106). To be noted: cited from earlier work.
For assay [5], the target named is T1, c-Myc. Particulars: at concentrations of 10-40 μM; cited from earlier work.
Assay [6] deals with chicken embryo fibroblasts. Particulars: cited from earlier work.

Counter-ions that a name gives are not always drawn.

In general, IC50 refers to the midpoint of a concentration-inhibition curve.

c-Myc/Max, sequence (P01106 whole entry): as above

Turning to `CCc1ccc(/C=C2/SC(=S)NC2=O)cc1` [10058-F4], in the assay on HL60 cells, the IC50 is 49 µM.
In the case of `CN1CC[C@H](c2c(O)cc(O)c3c(=O)cc(-c4ccccc4Cl)oc23)[C@H](O)C1` [Flavopiridol, (−)-2-(2-Chlorophenyl)-5,7-dihydroxy-8-[(3S,4R)-3-hydroxy-1-methyl-4-piperidinyl]-4H-1-benzopyran-4-one hydrochloride], in the assay on pause release, the pause release result is “inhibit pause release”. For the same compound, the “antitumor activity against various tumor cells lines” value in assay [1] is on record as “antitumor activity”. In addition, the “tumor growth in xenograft models” value in the assay with xenograft models is listed as “inhibit tumor growth”.
For the compound `CNC(=O)c1cc2c(cc1C(=O)NC[C@H](NS(=O)(=O)c1c(Cl)sc(Cl)c1Br)C(=O)OC(C)(C)C)CN(C(=O)CCC1CCN(C(=O)OC(C)(C)C)CC1)C2` [IIA6B17], the “inhibition of c-Myc-dependent transcription in a reporter gene assay” value at c-Myc [2] is listed as “inhibit”.
Turning to `Cc1sc2c(c1C)C(c1ccc(Cl)cc1)=N[C@@H](CC(=O)OC(C)(C)C)c1nnc(C)n1-2` [JQ1], in the assay on MM.1S cells (6 hour treatments, various concentrations of JQ1), the “MM1.S cell viability, as measured by ATP levels” value is “little effect”. Further, the “antiproliferative effect on MM1.S cells” value in the assay with MM.1S cells (later time points) is given as “dramatic antiproliferative effect”. Besides, the MYC protein levels result with c-MYC [3] is on record as “significantly depleted”. Moreover, in the assay on P-TEFb, the “levels of P-TEFb at sites where there was a reduction in BRD4” value was “reduce the levels of P-TEFb”. For the same compound, the “transcriptional elongation (PolII in the gene body and 3' transcription termination regions)” value in the assay on RNA Polymerase II was “global defect in transcriptional elongation”.
Regarding `CN(C)CCCNc1cc(O)c2c(c1O)C(=O)c1ccccc1C2=O` [MYRA-A], on c-Myc [4], the Myc-regulated gene expression result is recorded as “inhibit” and the apoptosis entry was “induce apoptosis in a Myc-dependent manner”.
With `COc1ccc(CNC(=O)c2cc3nc(-c4cccs4)cc(C(F)(F)F)n3n2)cc1` [Mycro1], on c-Myc [2], the “specificity for c-Myc-dependent transcription over transcription mediated by AP-1 family proteins” value is on record as “weak-to-moderate specificity”. Moreover, the “inhibition of c-Myc/Max dimerization” value at c-Myc/Max was “inhibit”.
For `O=C(NCc1cccs1)c1cc2nc(-c3cccs3)cc(C(F)(F)F)n2n1` [Mycro2], the “specificity for c-Myc-dependent transcription over transcription mediated by AP-1 family proteins” value on c-Myc [2] was “weak-to-moderate specificity”. The “inhibition of c-Myc/Max dimerization” value on c-Myc/Max is listed as “inhibit”.
As to `CCOC(=O)c1cnn(-c2ccccc2)c1NC(=O)c1cc2nc(-c3cccs3)cc(C(F)(F)F)n2n1` [Mycro3], the “inhibition of c-Myc/Max dimerization” value at c-Myc/Max is on record as “inhibited”. For the same compound, the “selectivity in vitro of inhibition of c-Myc/Max dimerization and DNA binding” value on c-Myc/Max (in vitro) was “very good selectivity”. In addition, the “potency and selectivity against c-Myc in cellular assays” value at c-Myc [5] was “good potency and selectivity”.
In the case of `COc1ccc(CN(C(=O)c2ccccn2)C(C(=O)NC2CCCCC2)c2ccc3cc(OCC(=O)OC(C)(C)C)ccc3c2)cc1` (stereo not shown) [NY2267], the “inhibition of c-Myc-dependent oncogenic transformation of chicken embryo fibroblasts” value in assay [6] (at 20 μM) was “strongly inhibited”. In addition, the “selectivity over transformation mediated by v-Src or v-Jun” value in [6] is “showed selectivity”. Moreover, the “discrimination between transcription mediated by c-Jun and c-Myc” value at c-Myc [2] is “did not discriminate”.
